Tests used:
[1] = test system: SMN protein in spinal muscular atrophy (SMA) patient fibroblasts (GM03813, Coriell); experiment: SMN protein assay, Mesoscale Discovery (MSD); assay type: cell-based, human
Summary of the method: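 SMA patient fibroblasts (GM03813) seeded at 7000 cells/well and exposed to compound at 2.5 μM to 0.6 nM for 48 hours. Lysates assayed for SMN by MSD immunoassay, with absolute SMN amount calculated from a per-plate SMN standard curve (1 μg/ml to 19.5 pg/ml).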

[2] = test system: MDR1-MDCK cell monolayers; conditions: dog, MDCK-MDR1, 120 min, 5 μM, pH 7.4
MDR1 (P-gp) = experiment: in vitro; conditions: dog, MDCK-MDR1, pH 7.4
MDR1 = experiment: in vitro; conditions: dog, MDCK-MDR1, pH 7.4
[3] = test system: mHTT protein in GM04724 (CAG 70/20) Huntington's disease patient lymphoblast cells; experiment: mHTT protein assay, 2B7-MW1 assay via Mesoscale Discovery (MSD); assay type: cell-based, human
Summary of the method: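 Patient lymphoblasts treated 48 h with compound from 10 μM to 0.6 nM. mHTT quantified by MSD 2B7-MW1 immunoassay, whose signal depends on polyQ expansion and HTT size. Viability measured on a replicate plate by CellTiter Glo.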

[4] = SMA patient fibroblasts GM03813, 48 hours, MSD
[5] = GM04724 Huntington's disease patient lymphoblasts

SMILES	SMN2 protein EC50 [1, 4]	MDCK-MDR1: % Recov A-B [2] [%]	MDCK-MDR1: % Recov B-A [2] [%]	Papp A→B at 120 min, 5 μM (MDR1 (P-gp)) [×10⁻⁶ cm/s]	Papp B→A at 120 min, 5 μM (MDR1 (P-gp)) [×10⁻⁶ cm/s]	efflux ratio at 120 min, 5 μM (MDR1)	mHTT protein EC50 [3, 5]	SMN2 protein EC50 ([1]; SMA patient fibroblasts (GM03813), 48 hours)	mHTT protein EC50 ([3]; GM04724 (CAG 70/20) Huntington's disease patient lymphoblasts)
CC(=O)Nc1ccc(-c2ccc(N(C)[C@@H]3C[C@H]4CC[C@H](N4)[C@@H]3F)nn2)c(O)c1 (single isomer, unassigned) [Compound 32A]	E (501 ≤ E ≤ 10.000)	90	98	0.34	20.2	59	E (501 ≤ E ≤ 10.000)		
CN(c1ccc(-c2cc3ncn(CC(F)(F)F)c(=O)c3cc2O)nn1)[C@@H]1C[C@H]2CCC[C@@H]([C@@H]1F)N2C (single isomer, unassigned) [Compound 109A]		76	81	2.72	63.3	23		E (501 ≤ E ≤ 10.000)	E (501 ≤ E ≤ 10.000)
CN(C)C(=O)c1cc2cc(O)c(-c3ccc(N(C4CC4)[C@@H]4C[C@H]5CC[C@H](N5)[C@@H]4F)nn3)cc2o1 [Compound 86A, 6-(6-(cyclopropyl((1S,2S,3R,5R)-2-fluoro-8-azabicyclo[3.2.1]octan-3-yl)amino)pyridazin-3-yl)-5-hydroxy-N,N-dimethylbenzofuran-2-carboxamide]	E (501 ≤ E ≤ 10.000)	93	90	1.05	62.5	60	E (501 ≤ E ≤ 10.000)		
O=c1c2cc(O)c(-c3ccc(N(C4CC4)[C@@H]4C[C@H]5CC[C@H](N5)[C@@H]4F)nn3)cc2ncn1CC(F)(F)F (single isomer, unassigned) [Compound 60A]	E (501 ≤ E ≤ 10.000)	94	100	0.44	65.9	151	E (501 ≤ E ≤ 10.000)		
CC(=O)N(C)c1ccc(-c2ccc(N(C)[C@@H]3C[C@H]4CC[C@H](N4)[C@@H]3F)nn2)c(O)c1 [Compound 35A, N-(4-(6-(((1S,2S,3R,5R)-2-fluoro-8-azabicyclo[3.2.1]octan-3-yl)(methyl)amino)pyridazin-3-yl)-3-hydroxyphenyl)-N-methylacetamide]	E (501 ≤ E ≤ 10.000)	102	103	0.21	41	197	E (501 ≤ E ≤ 10.000)		
O=C(c1cc2cc(O)c(-c3ccc(N(C4CC4)[C@@H]4C[C@H]5CC[C@H](N5)[C@@H]4F)nn3)cc2o1)N1CCC1 [Compound 57A, azetidin-1-yl(6-(6-(cyclopropyl((1S,2S,3R,5R)-2-fluoro-8-azabicyclo[3.2.1]octan-3-yl)amino)pyridazin-3-yl)-5-hydroxybenzofuran-2-yl)methanone]	E (501 ≤ E ≤ 10.000)	89	104	0.78	63.2	80	E (501 ≤ E ≤ 10.000)		

— patent US12509460B2 (Skyhawk Therapeutics, Inc., priority 2019, dated 2025)
